Like-named read-outs stand apart in the source and are kept apart here.
Key:
[1] = tested on: Fusarium proliferatum; assay: microbe, parasite or virus in culture; type: cell-based; details: 120 h, read-out: inhibition of Fumonisin FB1 production
[2] = tested on: Pyrenophora teres; assay: Pyrenophora test (barley) / preventive; type: in vivo; details: 500ppm of active ingredient, evaluated 7-9 days after the inoculation
Experimental: (§1) To produce a suitable preparation of active compound, 1 part by weight of active compound is mixed with the stated amounts of solvent and emulsifier, and the concentrate is diluted with water to the desired concentration.
To test for preventive activity, young plants are sprayed with the preparation of active compound at the stated rate of application. One day after this treatment, the plants are inoculated with an aqueous spore suspension of Pyrenophora teres. The plants remain for 48 hours in an incubation cabinet at 22°C and a relative atmospheric humidity of 100%. Then the plants are placed in a greenhouse at a temperature of approximately 20°C and a relative atmospheric humidity of approximately 80%.
The test is evaluated 7-9 days after the inoculation. 0% means an efficacy which corresponds to that of the control while an efficacy of 100% means that no disease is observed.

[3] = tested on: Alternaria solani; assay: Alternaria test (tomato) / preventive; type: in vivo; details: 500ppm of active ingredient, evaluated 7 days after the inoculation
Experimental: as §1
To test for preventive activity, young plants are sprayed with the preparation of active compound at the stated rate of application. One day after this treatment, the plants are inoculated with an aqueous spore suspension of Alternaria solani. The plants remain for one day in an incubation cabinet at approximately 22°C and a relative atmospheric humidity of 100%. Then the plants are placed in an incubation cabinet at approximately 20°C and a relative atmospheric humidity of 96%.
The test is evaluated 7 days after the inoculation. 0% means an efficacy which corresponds to that of the control while an efficacy of 100% means that no disease is observed.

[4] = logP at pH 3.5, given with the characterisation data; type: physicochemical; details: pH3.5
[5] = tested on: Fusarium graminearum; assay: microbe, parasite or virus in culture; type: cell-based
[6] = tested on: Botrytis cinerea; assay: Botrytis test (beans) / protective; type: in vivo; details: 250ppm of active ingredient, lesion size 2 days after the inoculation
Experimental: as §1
To test for protective activity, young plants are sprayed with the preparation of active compound. After the spray coating has dried on, 2 small pieces of agar covered with growth of Botrytis cinerea are placed on each leaf. The inoculated plants are placed in a darkened chamber at 20°C and a relative atmospheric humidity of 100%.
2 days after the inoculation, the size of the lesions on the leaves is evaluated. 0% means an efficacy which corresponds to that of the control, while an efficacy of 100% means that no disease is observed.

[7] = tested on: Venturia inaequalis; assay: Venturia test (apples) / protective; type: in vivo; details: 100ppm of active ingredient, evaluated 10 days after the inoculation
Experimental: as §1
To test for protective activity, young plants are sprayed with the preparation of active compound at the stated rate of application. After the spray coating has dried on, the plants are inoculated with an aqueous conidia suspension of the causal agent of apple scab (Venturia inaequalis) and then remain for 1 day in an incubation cabinet at approximately 20°C and a relative atmospheric humidity of 100 %.
The plants are then placed in a greenhouse at approximately 21°C and a relative atmospheric humidity of approximately 90 %.
The test is evaluated 10 days after the inoculation. 0% means an efficacy which corresponds to that of the control, while an efficacy of 100% means that no disease is observed.

[8] = tested on: Fusarium graminearum; type: in vivo; details: barley, preventive, 1000ppm of active ingredient, evaluated 5 days after the inoculation

Compound	inhibition at 50 µM [1] [%]	efficacy [2] [%]	efficacy [3] [%]	logD [4]	inhibition at 50 µM ([5]; 72 h, read-out: Growth inhibition of Fusarium graminearum) [%]	inhibition at 50 µM ([5]; 168 h, read-out: inhibition of DON/AcDON) [%]	efficacy [6] [%]	efficacy [7] [%]	efficacy [8] [%]
Fc1ccc(-c2c(-c3ccncc3)[nH]c3nccnc23)cc1 [Compound 1, 7-(4-fluorophenyl)-6-(pyridin-4-yl)-5H-Pyrrolo[2,3-b]pyrazine]	> 80	≥ 70	≥ 70	1.33	> 80	> 80	–	–	–
C#CCn1c(-c2ccncc2)c(-c2ccc(F)cc2)c2nccnc21 [Compound 2, 7-(4-fluorophenyl)-5-(prop-2-ylyl)-6-(pyridin-4-yl)-5H-pyrrolo[2,3-b]pyrazine]	> 80	≥ 70	≥ 70	2.22	–	–	≥ 70	≥ 70	≥ 70

— patent publication EP2338890A1, “4,7-Diazaindole derivatives and their use as fungicides” (Bayer CropScience AG, priority 2009, dated 2011)
